Assay results reported in paper PMC12302426, “Dihydrokoumine, a dual-target analgesic with reduced side effects isolated from a traditional Chinese medicine” (Journal of Advanced Research, 2024).

Legend:
Format in all cases: cell-based
HEK293T cells = test: Cytotoxicity assay (CCK-8), HEK293T; conditions: 24 h
Experimental: HEK293T, CHO, and HUVEC cell lines were cultured overnight in 96-well plates before exposure to compounds for 24 h. Cell viability was evaluated using the Cell Counting Kit-8 (CCK-8, Beyotime Biotechnology, China), and absorbance at 450 nm was measured with a microplate reader. Cell survival rates were calculated relative to control conditions.

Delta opioid receptor = target: T1, Delta opioid receptor (Homo sapiens, UniProt P41143); test: DMR agonist and desensitization assay in HEK293-Delta cells
T1 construct: expressed in transfected cells; host or cells: HEK293-Delta
T1 sequence (P41143 whole entry): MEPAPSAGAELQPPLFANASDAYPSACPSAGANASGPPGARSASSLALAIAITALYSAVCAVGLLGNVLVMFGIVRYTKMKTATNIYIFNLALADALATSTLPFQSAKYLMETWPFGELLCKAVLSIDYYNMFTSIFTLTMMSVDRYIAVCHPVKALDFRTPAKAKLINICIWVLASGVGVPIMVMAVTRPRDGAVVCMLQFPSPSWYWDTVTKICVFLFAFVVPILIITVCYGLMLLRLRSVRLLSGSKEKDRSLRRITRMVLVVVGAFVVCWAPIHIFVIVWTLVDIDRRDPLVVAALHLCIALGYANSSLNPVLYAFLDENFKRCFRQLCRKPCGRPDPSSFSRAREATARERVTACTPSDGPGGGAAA
Experimental: (§1) DMR assays were performed using an Epic® BT system (Corning, NY, USA). All used cell lines were directly seeded in Epic 384-well biosensor microplates with a seeding density of 25,000 cells per well. After being cultured for about 22 h, the cells formed a monolayer with a confluency of about 95 % in the cell culture medium. Then the cells were manually washed using assay buffer (1 × HBSS buffer, 10 mM HEPES, pH = 7.4) and maintained in 30 μL of the assay buffer for 1 h. All samples were dissolved in DMSO and diluted freshly with the assay buffer containing 0.1 % BSA.
The DMR assays were conducted as follows. […] In the case of the DMR desensitization assay, cells were pretreated with analytes for one hour before introducing a specific agonist at the indicated concentration, and the agonist-induced DMR signals were monitored for one hour. Finally, for the DMR antagonist assay, cells underwent a 1-hour pretreatment with an antagonist before the addition of a specific agonist at the indicated concentration, and subsequent DMR signals were recorded over one hour.
(§2) The receptor selectivity was evaluated against a set of G protein-coupled receptors (GPCRs), including opioid receptor (Delta/Kappa/NOP), dopamine receptor (D1/D2), orphan receptor (GPR35), adrenergic receptor (α2A/β2), serotonin receptor (5HT2A), histamine receptor (H1) and cannabinoid receptor (CB1). Following a 1-hour pretreatment with DK, a 2-min baseline was established before introducing probes and monitoring DMR signals for another hour. The cells and probes were as follows: Delta, HEK293-Delta, SNC162; Kappa, HEK293-Kappa, ICI199441; NOP, HEK293-NOP, MCOPPB; D1, HEK293-D1, dopamine; D2, HEK293-D2, dopamine; GPR35, CHO-K1-hGPR35, zaprinast; 5HT2A, HEK293-5HT2A, 5-hydroxytryptamine; α2A, HEK293-α2A, L-Noradrenaline; β2, A431, isoprenaline; H1, A431, histamine; CB1, CHO-K1-CB1, CP 55940. The other detailed process was the same as above.

histamine receptor H1 = target: T2, histamine receptor H1 (Homo sapiens, UniProt P35367); test: DMR desensitization assay, A431, probe histamine; conditions: 100 μM DK
T2 construct: endogenous in cells; host or cells: A431
T2 sequence (P35367 whole entry): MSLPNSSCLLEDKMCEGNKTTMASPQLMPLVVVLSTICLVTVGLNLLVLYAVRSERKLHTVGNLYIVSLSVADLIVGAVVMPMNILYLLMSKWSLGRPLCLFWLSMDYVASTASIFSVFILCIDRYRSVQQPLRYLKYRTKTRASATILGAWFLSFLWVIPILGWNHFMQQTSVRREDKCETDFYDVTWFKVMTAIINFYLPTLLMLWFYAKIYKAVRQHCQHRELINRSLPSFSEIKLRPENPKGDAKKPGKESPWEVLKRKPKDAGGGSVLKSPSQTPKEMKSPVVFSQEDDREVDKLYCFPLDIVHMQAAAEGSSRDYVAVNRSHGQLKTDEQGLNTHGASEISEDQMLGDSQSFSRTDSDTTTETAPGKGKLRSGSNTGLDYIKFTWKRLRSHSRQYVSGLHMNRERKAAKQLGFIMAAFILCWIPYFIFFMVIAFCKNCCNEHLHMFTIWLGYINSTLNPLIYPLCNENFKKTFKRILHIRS
Experimental: as §1
as §2, with “The other detailed process was the same as above.” left out

adrenergic receptor α2A = target: T3, adrenergic receptor α2A (Homo sapiens, UniProt P08913); test: DMR desensitization assay, HEK293-α2A, probe L-Noradrenaline; conditions: 100 μM DK
T3 construct: expressed in transfected cells; host or cells: HEK293-α2A
T3 sequence (P08913 whole entry): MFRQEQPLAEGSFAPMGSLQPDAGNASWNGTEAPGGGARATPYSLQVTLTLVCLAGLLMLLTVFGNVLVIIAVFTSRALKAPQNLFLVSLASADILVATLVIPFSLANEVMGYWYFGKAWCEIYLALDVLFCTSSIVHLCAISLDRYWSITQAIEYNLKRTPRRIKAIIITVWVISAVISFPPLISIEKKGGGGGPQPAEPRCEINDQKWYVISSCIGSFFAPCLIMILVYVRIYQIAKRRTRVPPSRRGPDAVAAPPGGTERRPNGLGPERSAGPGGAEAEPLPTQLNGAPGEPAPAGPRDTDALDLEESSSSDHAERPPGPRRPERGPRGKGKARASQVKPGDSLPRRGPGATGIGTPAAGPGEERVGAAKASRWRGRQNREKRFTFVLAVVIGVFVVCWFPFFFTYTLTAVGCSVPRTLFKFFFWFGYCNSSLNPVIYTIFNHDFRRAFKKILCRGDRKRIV
Experimental: as §1
as §2, with “The other detailed process was the same as above.” left out

C=CC12CN(C)C3CC14c1ccccc1NC4C1CC2C3CO1 (stereo not drawn) [DK]
cytotoxicity (cell viability) (HEK293T cells): had a little effect on HEK293T cells but not in a concentration-dependent manner | DMR agonist response (Delta opioid receptor; HEK293-Delta cells): unable to trigger a concentration-dependent DMR response | probe-induced DMR response after DK pretreatment (Delta opioid receptor; HEK293-Delta, 2.5 μM SNC162, pretreatment one hour): had little effect on the DMR response produced by the respective probes | antagonist effect at high concentration (decrease of probe DMR response) (Delta opioid receptor; HEK293-Delta, SNC162, high-concentration of DK): very weak antagonist effects | reduction of probe DMR response (desensitization) (histamine receptor H1): almost unable to reduce the response | reduction of probe DMR response (desensitization) (adrenergic receptor α2A): almost unable to reduce the response
